Values after ≈ are worked out from the molar mass of the structure shown.
Tests used:
Staphylococcus aureus = experiment: Antimicrobial activity against Staphylococcus aureus assessed as zone of inhibition incubated for 20 hrs by agar well diffusion assay; assay type: functional
Escherichia coli = experiment: Antimicrobial activity against Escherichia coli assessed as zone of inhibition incubated for 20 hrs by agar well diffusion assay; assay type: functional
Monocyte [1] = experiment: Antiinflammatory activity in human monocytes assessed as inhibition of LPS-induced TNFaplha production at 50 uM preincubated for 15 mins followed by LPS addition and measured after 4 hrs by ELISA relative to control; assay type: functional
[2] = Cytotoxicity against LPS-induced human monocytes assessed as cell viability at 50 uM by tryphan blue staining based assay relative to control; parameters: species or system Monocyte; details: read-out: Activity
[3] = test system: Mycolicibacterium smegmatis; experiment: Inhibition of Mycobacterium smegmatis ATCC 607 dihydrofolic reductase assessed as ratio of Km to Ki
[4] = Inhibition of Mycobacterium smegmatis ATCC 607 dihydrofolic reductase; parameters: species or system Mycolicibacterium smegmatis
[5] = test system: Mycolicibacterium smegmatis; experiment: Antimicrobial activity against Mycobacterium smegmatis ATCC 607; assay type: functional; details: Mycolicibacterium smegmatis, ATCC 607; read-out: MIC
Mycobacterium leprae [6] = experiment: (§1) Inhibition of PGL1 synthesis in Mycobacterium leprae infected Swiss Webster mouse macrophages assessed as decrease in [U-14C]PA incorporation at 0.2 uM preincubated for 4 days post infection followed by [U-14C]PA addition and measured after 7 days by liquid scintillation counter analysis relative to control; assay type: functional
Mycobacterium leprae [7] = experiment: as §1, with “2” for “0.2”; assay type: functional
[8] = test system: Mycolicibacterium smegmatis; experiment: Antimycobacterial activity against Mycobacterium smegmatis mc2 155 incubated for 2 days by spectrophotometric based assay; assay type: functional; details: MC2 155, 48 h
[9] = Drug excretion in rat urine at 400 mg/kg, sc administered as single dose measured after 30 days; assay type: ADME, organism-based; details: read-out: Drug excretion
[10] = Half life in rat at 400 mg/kg, sc administered as single dose; assay type: ADME, organism-based; details: in vivo
Mycobacterium leprae [11] = experiment: Anti-leprotic activity against Mycobacterium leprae infected in albino mouse assessed survival against infection at 400 mg/kg, sc administered 58 days post-infection and subsequent compound dosing at 200 mg/kg at 0.5, 1 or 2 months interval; assay type: functional
Plasmodium berghei = experiment: Antimalarial activity against Plasmodium berghei infected in albino mouse assessed survival against infection at 400 mg/kg, sc administered as single dose; assay type: functional
Monocyte [12] = experiment: Antiinflammatory activity in human monocytes assessed as inhibition of LPS-induced TNFaplha production at 25 uM preincubated for 15 mins followed by LPS addition and measured after 4 hrs by ELISA relative to control; assay type: functional
[13] = test system: Mycolicibacterium smegmatis; experiment: Antimicrobial activity against Mycobacterium smegmatis incubated for 24 hrs by broth microdilution assay; assay type: functional
Mycolicibacterium aurum = experiment: Antimicrobial activity against Mycobacterium aurum incubated for 24 hrs by broth microdilution assay; assay type: functional
Mycolicibacterium vaccae = experiment: Antimicrobial activity against Mycobacterium vaccae incubated for 24 hrs by broth microdilution assay; assay type: functional
Mycobacterium leprae [14] = experiment: Anti-leprotic activity against Mycobacterium leprae infected in 538 CBA mouse assessed as number of Mycobacterium leprae in paw pads at 6 mg/kg administrated via gastric tube 5 times a week and measured 7 months post infection; assay type: functional
Mycobacterium leprae [15] = experiment: Anti-leprotic activity against Mycobacterium leprae infected in 538 CBA mouse assessed as number of Mycobacterium leprae in paw pads at 2 mg/kg administrated via gastric tube 5 times a week and measured 7 months post infection; assay type: functional
[16] = test system: Mycolicibacterium fortuitum; experiment: Antimicrobial activity against Mycobacterium fortuitum incubated for 24 hrs by broth microdilution assay; assay type: functional
[17] = Drug concentration in rat blood at 400 mg/kg, sc administered as single dose; assay type: ADME, organism-based; details: in vivo
Rattus norvegicus = experiment: Effect of metallo-protein haemoglobin in rat assessed as peak methemoglobin level at 400 mg/kg, sc administered as single dose; assay type: ADME, organism-based; details: in vivo

For `C[C@@H](O)[C@H]1C(=O)N2C(C(=O)O)=C(SCCNC=N)O[C@H]12`, the “diameter of the inhibition zone (DIZ)” value (Staphylococcus aureus) was 28 mm and the “diameter of the inhibition zone (DIZ)” value (Escherichia coli) was 31 mm.
For `CCC1(N2C(=O)c3c(F)c(F)c(F)c(F)c3C2=O)C(=O)NC(=O)N(c2ccccc2)C1=O` (stereo unspecified), the inhibition at 50 µM (Monocyte [1]) was 16% and the viability at 50 µM [2] was 68%.
With `Cc1cnc2nc(N)nc(N)c2n1` the Ratio [3] was 0.8, the Ki [4] was 5100 nM and the MIC [5] was > 568 µM.
Compound `Clc1ccc(Nc2cc3nc4ccccc4n(-c4ccc(Cl)cc4)c-3c/c2=N/CCCN2CCCC2)cc1` has an inhibition at 0.2 µM (Mycobacterium leprae [6]) of 26% and an inhibition at 2 µM (Mycobacterium leprae [7]) of 98%.
Work on `COc1cc(Cc2cnc3nc(N)nc(N)c3n2)cc(OC)c1OC` yielded a Ratio [3] of 230, a Ki [4] of 5 nM and an MIC [5] of 347 µM (≈ 119 µg/mL).
`O=C1c2ccccc2C(=O)N1c1cnc(S(=O)(=O)Nc2ccccn2)cn1` showed an MIC99 [8] of 3000 µM (≈ 1140 µg/mL).
For `CCCCc1cnc2nc(N)nc(N)c2n1`, the Ratio [3] was 4100, the Ki [4] was 1 nM and the MIC [5] was 917 µM (≈ 200 µg/mL).
With `CC(=O)N(C)c1ccc(S(=O)(=O)c2ccc(N(C)C(C)=O)cc2)cc1` the dose excreted at 720 h [9] was 85%, the half-life [10] was 10 days and the Survival (Mycobacterium leprae [11]) was >8 weeks. The Survival (Plasmodium berghei) was 9 weeks.
With `O=C1c2cccc([N+](=O)[O-])c2C(=O)N1c1cn(-c2ccccc2)c(=O)[nH]c1=O` the inhibition at 50 µM (Monocyte [1]) was < 10%, the inhibition at 25 µM (Monocyte [12]) was < 10% and the viability at 50 µM [2] was 90%.
Work on `CN(C)c1ncnc(SC(=S)N2CCCC2)c1[N+](=O)[O-]` yielded an MIC [13] of 3.12 µg/mL (≈ 9.96 µM), an MIC (Mycolicibacterium aurum) of 3.12 µg/mL (≈ 9.96 µM) and an MIC (Mycolicibacterium vaccae) of 1.56 µg/mL (≈ 4.98 µM). For the same compound, the Activity (Mycobacterium leprae [14]) was 2.14 ×10⁷ No_unit, the Activity (Mycobacterium leprae [15]) was 4.43 ×10⁷ No_unit and the MIC [16] was 1.56 µg/mL (≈ 4.98 µM).
`O=C1c2ccccc2C(=O)N1c1ccc(S(=O)(=O)Nc2ccccn2)cn1` gave an MIC99 [8] of 6100 µM (≈ 2320 µg/mL).
Compound `COc1cc(Oc2cnc(N)nc2N)cc(OC)c1Br` has an Activity (Mycobacterium leprae [14]) of 0.56 ×10⁷ No_unit and an Activity (Mycobacterium leprae [15]) of 1.27 ×10⁷ No_unit.
In the case of `N#Cc1cc([N+](=O)[O-])cnc1SC(=S)N1CCCCC1`, the MIC [13] is reported as 3.12 µg/mL (≈ 10.1 µM), the MIC (Mycolicibacterium aurum) is reported as 1.56 µg/mL (≈ 5.06 µM) and the MIC (Mycolicibacterium vaccae) is reported as 1.56 µg/mL (≈ 5.06 µM). It also gave an MIC [16] of 1.56 µg/mL (≈ 5.06 µM).
In the case of `CC(=O)Nc1ccc(S(=O)(=O)c2ccc(NC(C)=O)cc2)cc1` [ACEDAPSONE], the dose excreted at 720 h [9] is reported as 7%, the half-life [10] is reported as > 200 days and the Survival (Mycobacterium leprae [11]) is reported as >8 weeks. It also gave a Drug uptake [17] of 0.2 µg/mL, an Activity (Rattus norvegicus) of 0 g/dL and a Survival (Plasmodium berghei) of 12 weeks.
In the case of `C[C@@H](O)[C@H]1C(=O)N2C(C(=O)O)=C(SCCNC=O)C[C@H]12`, the “diameter of the inhibition zone (DIZ)” value (Staphylococcus aureus) is reported as 29 mm and the “diameter of the inhibition zone (DIZ)” value (Escherichia coli) is reported as 30 mm.
`CCc1nc(N)nc(N)c1-c1ccc(Cl)cc1` [PYRIMETHAMINE] showed a Ratio [3] of 0.8, a Ki [4] of 75 nM and an MIC [5] of 101 µM (≈ 25.1 µg/mL).
In the case of `C[C@@H](O)[C@H]1C(=O)N2C(C(=O)O)=C(SCCNC=N)C[C@H]12` [IMIPENEM ANHYDROUS], the “diameter of the inhibition zone (DIZ)” value (Staphylococcus aureus) is reported as 31 mm and the “diameter of the inhibition zone (DIZ)” value (Escherichia coli) is reported as 35 mm.
With `Nc1nc(N)c2nc(Cc3ccccc3)cnc2n1` the Ratio [3] was 4560, the Ki [4] was 0.9 nM and the MIC [5] was > 794 µM.
Work on `Nc1ccc(F)c(F)c1` yielded an inhibition at 50 µM (Monocyte [1]) of 19% and a viability at 50 µM [2] of 99%.
`NC(=O)c1cc([N+](=O)[O-])cc([N+](=O)[O-])c1SC(=S)N1CCCC1` showed an MIC [13] of 50 µg/mL (≈ 140 µM), an MIC (Mycolicibacterium aurum) of 6.25 µg/mL (≈ 17.5 µM) and an MIC (Mycolicibacterium vaccae) of 0.4 µg/mL (≈ 1.12 µM). The MIC [16] was 6.25 µg/mL (≈ 17.5 µM).
For `CC(=O)Nc1ccc(S(=O)(=O)c2ccc(/N=C/c3ccc(/C=N/c4ccc(S(=O)(=O)c5ccc(NC(C)=O)cc5)cc4)cc3)cc2)cc1`, the dose excreted at 720 h [9] was 40%, the half-life [10] was 55 days and the Survival (Mycobacterium leprae [11]) was >8 weeks. For the same compound, the Drug uptake [17] was 0.4 µg/mL, the Activity (Rattus norvegicus) was 0.2 g/dL and the Survival (Plasmodium berghei) was 5 - 7 weeks.
With `O=C1c2ccccc2C(=O)N1c1ccc(S(=O)(=O)Nc2cnccn2)cc1` the MIC99 [8] was 6800 µM (≈ 2590 µg/mL).
With `CC(=O)Nc1ccc(S(=O)(=O)c2ccc(NC(C)=O)c(C)c2)cc1` the dose excreted at 720 h [9] was 31%, the half-life [10] was 35 days and the Survival (Mycobacterium leprae [11]) was >8 weeks. It also gave a Drug uptake [17] of 0.7 µg/mL, an Activity (Rattus norvegicus) of 1 g/dL and a Survival (Plasmodium berghei) of 9 weeks.
